From patent publication US9687459B2, “Aminocyclobutane derivatives, method for preparing same and the use thereof as drugs” (priority 2012, dated 2017)
Where “and” joins values, the source holds several entries; their conditions need not be identical. Equal values may be shown once. Read-outs that look alike come from different tables or passages of the source.

Legend:
[1] = biological target: T1, recombinant human NMDA receptors constructed from NR1 and NR2B sub-units (Homo sapiens, UniProt Q05586+Q13224); test: Inhibition of NMDA current in Xenopus ovocytes, two electrode voltage clamp; type: cell-based
T1 construct: expressed in transfected cells; host or cells: Xenopus laevis oocytes injected with cRNA transcribed from pGEMHE constructs
Description: We examined the effects of the compounds of the invention on inhibition of the NMDA current in Xenope (Xenopus laevis) expressing recombinant human NMDA receptors constructed from NR1 and NR2B sub-units. The currents produced by stimulation of these receptors by means of endogenous agonists were studied according to the two electrode voltage clamp technique reported by Planells-Cases et al., 2002, J. Pharmacol. Exp. Ther., 302, 163-173.
Protocol: ovocytes were surgically removed from adults xenopes, enzymatically defolliculated and stored at 17° C. in a solution containing: 96 mM of NaCl, 2 mM of KCl, 1 mM of MgCl2, 1.8 mM of CaCl2 and 5 mM of HEPES at pH 7.5 (NaOH) and 50 mg/L of gentamycin (Heusler et al., 2005, Neuropharmacology, 49, 963-976). Complementary DNA (cDNA) coding for the NR1 sub-unit was cloned by PCR using primers targeted for start and end codons in the published sequence (Genebank access number M_007327). cDNA coding for the NR2B sub-unit was synthesised by Eurogentec (Seraing, Belgium) according to the published sequence (gene bank access number NM_000834). The NR1 and NR2B cDNA was then sub-cloned in the pGEMHE high expression carrier for in vitro transcription of cDNA. cRNA coding for NR1 and NR2B was prepared according to the method described by Heusler et al. (already cited). Aliquots of the cRNA solution were injected into the ovocytes ([…] for NR1 and 40-1000 pg/ovocyte for NR2B). Each ovocyte was injected with 100 nL of a solution containing: 4 mM of Na^+BAPTA (pH 7.2) in order to block all residual chlorine currents. After stabilisation, NMDA currents were activated by superfusion of glutamate and glycine each at a concentration of 10 μM. The compounds to be tested were then superfused in a Ringer Ba^++ solution at increasing concentrations in the presence of glutamate and glycine (4 to 5 concentrations were tested per ovocyte). The concentration-response codes obtained are analysed for each ovocyte by non-linear regression and a pIC50 value was calculated. pIC50 designates the negative logarithm of the compound concentration tested needed to reduce the amplitude of the NMDA current by half.

[2] = test system: forced swimming model in the rat; test: Forced swimming test, immobility time; type: in vivo; details: for Immobility time % reduction at 20 mg/kg: 20 mg/kg ip; for ED50: ip 30 min before test, dose reducing immobility time by half relative to controls
Experimental: This height allows the rats to swim or to float without their paws touching the base of the cylinder. 24 hours before the test day, the rats are placed in the cylinder for 15 min, after which time they no longer attempt to escape and remain immobile at the surface. On the test day, the compound to be tested or the carrier is injected (ip) into the animal which is placed in the cylinder 30 min later. The duration of immobility (defined when the rat simply floats and only makes small movements to stay at the surface) is measured with an accuracy of 0.1 s for 5 minutes.

[3] = test system: acute inflammatory pain model in the rat; details: for Paw licking % reduction at 40 mg/kg / Paw licking inhibition at 40 mg/kg (in words): 40 mg/kg ip, late phase; for Paw licking MSD (minimum significant dose): ip 15 min before formaldehyde, late phase 22.5-27.5 min
[4] = test system: pre-pulse inhibition of the jolt reflex in the rat; test: Pre-pulse inhibition test for the jolt reflex (PPI); type: in vivo; details: FIG. 1
Description: We have already highlighted the importance of normalising the NMDA receptor function, in other words blocking its excessive activity without interfering, or interfering as little as possible, with its normal physiological functioning. As a marker of the interaction between the products of the invention and the normal functioning of the NMDA receptors, we chose the pre-pulse inhibition test for the jolt reflex (PPI). This test represents a measurement of the organism's capacity to filter non-essential information. Non-competitive and competitive antagonists as well as channel blockers reduce PPI in the rat (Depoortere et al., 1999, Behav. Pharmacol., 10, 51-62), such a reduction being considered to be predictive of the psychotomimetic effects of NMDA antagonists in humans.
Protocol: Male rats (Sprague-Dawley Iffa Credo, Les Oncins, France) were placed in 18.4 cm by 8.8 cm diameter cylinders resting on a base below which a piezoelectric accelerometer is fixed to act as a detector of the jolt reaction. This is enclosed in a box with a loudspeaker attached to the ceiling to deliver sound pulses and pre-pulses, and is acoustically isolated (SR LAB, San Diego Instruments, San Diego, USA). All the events are controlled by means of software. […] Three types of sound stimuli (white noise) are delivered; 1) a pulse of 118 dB (P, duration 40 msec); 2) a pre-pulse of 78 dB (duration 20 msec) followed by a pulse of 118 dB (pP); and 3) no pre-pulse or pulse (NP). The interval between the beginning of the pre-pulse and the beginning of the pulse is 100 msec, with background noise at 70 dB. The jolt reaction is recorded for 100 ms, 100 ms after the beginning of the stimulus (pP or NP) by a numerical/analogue acquisition card (12 bits). The session starts with a stimulus-free period of 5 min after which animals are exposed to 10 P (separated on average by 15 s and intended to stabilise the jolt reaction). The reactions recorded with these 10 P are not used for the calculation. After this, 10 P, 10 pP and 3 NP are delivered in a semi-random order with an average interval of 15 s in between. At the end of this pre-test, rats undergo an ip injection of the compounds to be tested or physiological serum as a control and are returned to their cages. The actual test session (similar on every point to the pre-test) is carried out 60 minutes later. The percentage inhibition of the pre-pulse is calculated using data from this test session according to the formula: (median amplitude P−median amplitude pP)×100/(median amplitude P).

[5] = ovocytes expressing human NR1/NR2B, glutamate and glycine each 10 μM, read-out: Inhibition of NMDA current pIC50 (converted)

T1 sequence (Q13224 27-1484, other chains not shown): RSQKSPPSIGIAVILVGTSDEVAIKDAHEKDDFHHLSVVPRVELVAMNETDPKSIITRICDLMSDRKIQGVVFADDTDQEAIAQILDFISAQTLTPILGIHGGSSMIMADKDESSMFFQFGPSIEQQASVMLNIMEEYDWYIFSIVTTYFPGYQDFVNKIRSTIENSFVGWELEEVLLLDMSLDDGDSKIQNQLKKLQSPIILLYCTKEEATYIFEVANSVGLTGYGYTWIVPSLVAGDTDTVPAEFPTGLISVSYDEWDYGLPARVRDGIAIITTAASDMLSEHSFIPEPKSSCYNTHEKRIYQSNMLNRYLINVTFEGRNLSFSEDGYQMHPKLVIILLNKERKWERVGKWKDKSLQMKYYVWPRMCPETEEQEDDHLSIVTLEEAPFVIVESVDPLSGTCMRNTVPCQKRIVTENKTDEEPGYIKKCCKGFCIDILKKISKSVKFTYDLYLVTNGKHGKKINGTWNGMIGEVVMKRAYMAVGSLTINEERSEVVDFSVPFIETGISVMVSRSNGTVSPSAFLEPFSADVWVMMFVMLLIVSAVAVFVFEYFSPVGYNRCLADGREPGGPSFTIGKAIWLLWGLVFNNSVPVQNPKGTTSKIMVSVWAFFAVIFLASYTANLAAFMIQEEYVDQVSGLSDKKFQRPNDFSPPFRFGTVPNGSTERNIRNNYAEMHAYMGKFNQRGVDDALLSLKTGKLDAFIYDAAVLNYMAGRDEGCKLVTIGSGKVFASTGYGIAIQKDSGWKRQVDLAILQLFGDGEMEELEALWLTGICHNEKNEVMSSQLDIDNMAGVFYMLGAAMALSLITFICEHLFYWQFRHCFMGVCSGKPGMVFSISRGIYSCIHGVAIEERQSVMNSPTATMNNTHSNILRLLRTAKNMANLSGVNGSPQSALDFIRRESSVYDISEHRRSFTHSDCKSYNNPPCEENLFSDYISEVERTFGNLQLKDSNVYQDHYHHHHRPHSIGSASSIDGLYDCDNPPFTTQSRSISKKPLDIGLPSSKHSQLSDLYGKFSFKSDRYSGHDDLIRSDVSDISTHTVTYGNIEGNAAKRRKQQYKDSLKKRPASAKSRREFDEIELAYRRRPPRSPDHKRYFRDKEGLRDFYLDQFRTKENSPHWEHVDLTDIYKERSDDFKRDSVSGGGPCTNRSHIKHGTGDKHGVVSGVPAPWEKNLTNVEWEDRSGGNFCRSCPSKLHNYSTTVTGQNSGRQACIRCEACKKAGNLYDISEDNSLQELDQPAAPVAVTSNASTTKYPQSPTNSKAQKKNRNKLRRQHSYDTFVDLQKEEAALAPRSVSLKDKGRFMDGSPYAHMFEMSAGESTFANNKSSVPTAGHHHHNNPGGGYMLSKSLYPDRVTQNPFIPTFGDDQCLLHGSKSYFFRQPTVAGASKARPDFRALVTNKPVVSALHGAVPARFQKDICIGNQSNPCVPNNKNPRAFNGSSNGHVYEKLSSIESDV

CCN(CC)C(=O)[C@]1(c2cccc(Cl)c2)C[C@@H](N)C1 [Compound 1e, trans-3-amino-N,N-diethyl-1-(3-chlorophenyl)-cyclobutanecarboxamide]
IC50 [1]: 0.0794 µM | Immobility time % reduction at 20 mg/kg [2]: 77% | ED50 [2]: 15 mg/kg | Paw licking % reduction at 40 mg/kg [3]: 100% | Paw licking inhibition at 40 mg/kg (in words) [3]: completely inhibited | Paw licking MSD (minimum significant dose) [3]: 10 mg/kg

CCN(CC)C(=O)[C@]1(c2ccccc2F)C[C@@H](N)C1 [Compound 1b, trans-3-amino-N,N-diethyl-1-(2-fluorophenyl)-cyclobutanecarboxamide]
IC50 [1, 5]: 0.501 µM

CCN(CC)C(=O)[C@]1(c2cccc(F)c2)C[C@@H](N)C1 [Compound 1c, trans-3-amino-N,N-diethyl-1-(3-fluorophenyl)-cyclobutanecarboxamide]
IC50 [1, 5]: 0.158 µM | Immobility time % reduction at 20 mg/kg [2]: 83% | ED50 [2]: 13 mg/kg

CCN(CC)C(=O)[C@]1(c2cccc(OC)c2)C[C@@H](N)C1 [Compound 1d, trans-3-amino-N,N-diethyl-1-(3-methoxyphenyl)-cyclobutanecarboxamide]
IC50 [1, 5]: 0.398 µM

CCN(CC)C(=O)[C@]1(c2ccccc2)C[C@@H](N)C1 [Compound 1a1, trans-3-amino-N,N-diethyl-1-phenylcyclobutanecarboxamide]
IC50 [1, 5]: 0.501 µM | Reduction in PPI at 20 mg/kg ([4]; 20 mg/kg ip, test 60 min after injection): 30% | PPI reduction at 40 mg/kg (in words) ([4]; 40 mg/kg): modest | Dose from which PPI is disrupted ([4]; ip): ≥ 20 mg/kg | Paw licking % reduction at 40 mg/kg [3]: 100% | Paw licking inhibition at 40 mg/kg (in words) [3]: completely inhibited | Paw licking MSD (minimum significant dose) [3]: 10 mg/kg

CNC1(c2ccccc2Cl)CCCCC1=O (stereo not drawn) [ketamine, reference compound]
IC50 [1]: 0.794 µM | Immobility time % reduction at 20 mg/kg [2]: 50% | ED50 [2]: 20 mg/kg | Effect on PPI at 20 mg/kg (in words) ([4]; 20 mg/kg ip): total disappearance of PPI | Paw licking % reduction at 40 mg/kg ([3]; 40 mg/kg): 74% and 75% | Paw licking MSD (minimum significant dose) [3]: 40 mg/kg
